Measured values from patent US20230017045A1, “PYRIDINE AND PYRIMIDINE CARBOXYLATE HERBICIDES AND METHODS OF USE THEREOF” (Dow AgroSciences LLC, priority 2017, published 2023).
Where two headings read alike, the source gives them in different places.

What was measured:
test plant species = test: Post-emergent herbicidal activity test (greenhouse, foliar spray, visual growth reduction); type: in vivo; conditions: post-emergence, 336 h, 140 g ai/ha
How it was run: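 Greenhouse plants at first–second true leaf stage sprayed overhead at 187 L/ha with compound in acetone/water/isopropanol/DMSO/crop oil/X-77 carrier; controls received solvent blank. Injury rated visually after 14 d on a 0–100% scale versus untreated and control plants, converted to growth reduction.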

[1] = ECHCG: barnyardgrass (Echinochloa crus-galli), 14 days after application, read-out: Visual Growth Reduction (%) 14 Days After Application, ECHCG
[2] = IPOHE: ivy-leaf morning glory (Ipomoea hederacea), 14 days after application, read-out: Visual Growth Reduction (%) 14 Days After Application, IPOHE
[3] = KCHSC: kochia (Bassia scoparia), 14 days after application, read-out: Visual Growth Reduction (%) 14 Days After Application, KCHSC
[4] = ORYSA: rice (Oryza sativa), 14 days after application, read-out: Visual Growth Reduction (%) 14 Days After Application, ORYSA
[5] = SETFA: giant foxtail (Setaria faberi), 14 days after application, read-out: Visual Growth Reduction (%) 14 Days After Application, SETFA
[6] = SORVU: grain sorghum (Sorghum vulgare), 14 days after application, read-out: Visual Growth Reduction (%) 14 Days After Application, SORVU
[7] = STEME: common chickweed (Stellaria media), 14 days after application, read-out: Visual Growth Reduction (%) 14 Days After Application, STEME
[8] = TRZAS: wheat, spring (Triticum aestivum), 14 days after application, read-out: Visual Growth Reduction (%) 14 Days After Application, TRZAS
[9] = blackgrass (Alopecurus myosuroides), 14 Days After Application, read-out: Visual Growth Reduction (%) ALOMY
[10] = canada thistle (Cirsium arvense), 14 Days After Application, read-out: Visual Growth Reduction (%) CIRAR
[11] = crabgrass (Digitaria sanguinalis), 14 Days After Application, read-out: Visual Growth Reduction (%) DIGSA
[12] = lambsquarters (Chenopodium album), 14 Days After Application, read-out: Visual Growth Reduction (%) CHEAL
[13] = redroot pigweed (Amaranthus retroflexus), 14 Days After Application, read-out: Visual Growth Reduction (%) AMARE
[14] = wild oat (Avena fatua), 14 Days After Application, read-out: Visual Growth Reduction (%) AVEFA
[15] = yellow nutsedge (Cyperus esculentus), 14 Days After Application, read-out: Visual Growth Reduction (%) CYPES

Row | Structure (SMILES) | melting point | pest or weed control at 140 g/ha (test plant species; [1]) | pest or weed control at 140 g/ha (test plant species; [2]) | pest or weed control at 140 g/ha (test plant species; [3]) | pest or weed control at 140 g/ha (test plant species; [4]) | pest or weed control at 140 g/ha (test plant species; [5]) | pest or weed control at 140 g/ha (test plant species; [6]) | pest or weed control at 140 g/ha (test plant species; [7]) | pest or weed control at 140 g/ha (test plant species; [8]) | pest or weed control at 140 g/ha (test plant species; [9]) | pest or weed control at 140 g/ha (test plant species; [10]) | pest or weed control at 140 g/ha (test plant species; [11]) | pest or weed control at 140 g/ha (test plant species; [12]) | pest or weed control at 140 g/ha (test plant species; [13]) | pest or weed control at 140 g/ha (test plant species; [14]) | pest or weed control at 140 g/ha (test plant species; [15]) | also measured
1 | COc1ncc(Cl)cc1-c1ccc(Cl)c(C(=O)O)n1 [F134, 5,5′-Dichloro-2′-methoxy-[2,3′-bipyridine]-6-carboxylic acid] | 155.2 to 163.3 °C | 0 to 29% | 0 to 29% | 0 to 29% | 0 to 29% | 0 to 29% | 0 to 29% | 0 to 29% | 0 to 29% |  |  |  |  |  |  |  | pest or weed control at 140 g/ha (test plant species; ALOMY: blackgrass (Alopecurus myosuroides), 14 days after application, read-out: Visual Growth Reduction (%) 14 Days After Application, ALOMY): 0 to 29%; pest or weed control at 140 g/ha (test plant species; AMARE: redroot pigweed (Amaranthus retroflexus), 14 days after application, read-out: Visual Growth Reduction (%) 14 Days After Application, AMARE): 0 to 29%; pest or weed control at 140 g/ha (test plant species; AVEFA: wild oat (Avena fatua), 14 days after application, read-out: Visual Growth Reduction (%) 14 Days After Application, AVEFA): 0 to 29%; pest or weed control at 140 g/ha (test plant species; CHEAL: lambsquarters (Chenopodium album), 14 days after application, read-out: Visual Growth Reduction (%) 14 Days After Application, CHEAL): 0 to 29%; pest or weed control at 140 g/ha (test plant species; CIRAR: canada thistle (Cirsium arvense), 14 days after application, read-out: Visual Growth Reduction (%) 14 Days After Application, CIRAR): 0 to 29%; pest or weed control at 140 g/ha (test plant species; CYPES: yellow nutsedge (Cyperus esculentus), 14 days after application, read-out: Visual Growth Reduction (%) 14 Days After Application, CYPES): 0 to 29%; pest or weed control at 140 g/ha (test plant species; DIGSA: crabgrass (Digitaria sanguinalis), 14 days after application, read-out: Visual Growth Reduction (%) 14 Days After Application, DIGSA): 0 to 29%
2 | COC(=O)c1nc(-c2ccc(C(F)(F)F)nc2F)c(F)cc1Cl [F354, methyl 5-chloro-2′,3-difluoro-6′-(trifluoromethyl)-[2,3′-bipyridine]-6-carboxylate] | 84 to 86 °C | 75 to 84% | 95 to 100% | 60 to 74% | 0 to 29% | 75 to 84% | 85 to 94% | 0 to 29% | 60 to 74% | 0 to 29% | 75 to 84% | 85 to 94% | 75 to 84% | 60 to 74% | 30 to 44% | 0 to 29% | 
3 | COC(=O)c1nc(-c2ccc(S(C)(=O)=O)cc2F)c(F)cc1Cl [F379, Methyl 3-chloro-5-fluoro-6-(2-fluoro-4-(methylsulfonyl)phenyl)picolinate] | 179 to 181 °C | 75 to 84% | 95 to 100% | 85 to 94% | 0 to 29% | 75 to 84% | 75 to 84% | 0 to 29% | 60 to 74% | 0 to 29% | 0 to 29% | 60 to 74% | 60 to 74% | 60 to 74% | 0 to 29% | 0 to 29% | 
